Legend:
Raf-1(truncated) = assay: Raf-1 inhibitor screening by chemoluminescence method; format: biochemical; conditions: Final concentration 1 x 1.0*10^−5 mol/ml
Text: 1. Inhibitory activity of the compound of the present invention on raf kinase
Raf-1 inhibitor screening by chemoluminescence method
Westernblot electrophoresis apparatus Rotaryshaker
Raf-1(truncated), Magnesium/ATP Cocktail, MEK1 unactive

[1] = tested on: human lung cancer cell strain A549; assay: MTT assay, inhibition of growth of human lung cancer cell strain A549; format: cell-based
Outline: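 A549 cells grown in F12 with 10% FBS; growth read by MTT, inhibition rate from blank-corrected OD of drug wells versus control wells.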

[2] = tested on: human high-metastic lung cancer cell 95D; assay: Inhibition of human high-metastic lung cancer cell 95D migration (Boyden Chamber Transwell); format: cell-based; conditions: Final concentration 1 x 1.0*10^(−5) mol/L
Outline: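 Boyden Transwell migration (8 μm pores) of 95D cells, RPMI-1640 with 10% FBS versus serum-free medium; inhibition rate calculated.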

lung cancer cell A549 = assay: Effects on the adhesive ability of lung cancer cell A549; format: cell-based, human; conditions: Final concentration 1 x 1.0*10^(−5) mol/L
Outline: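 A549 cells in 1640 medium with 10% FBS tested for adhesion to gelatin versus poly-lysine (PLL), with CCK8 used as read-out. Inhibition rate derived from the gelatin/PLL adhesion OD ratio of dosed cells relative to the undosed cell group.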

[3] = tested on: human umbilical vein endothelial cell HUVEC; assay: Growth of human umbilical vein endothelial cell HUVEC by CCK8 method; format: cell-based; conditions: Final concentration 1 x 1.0*10^(−5) mol/L
Outline: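 HUVEC cells were grown in 1640 medium with 10% FBS, and growth was measured by the CCK8 method. OD values of drug and control wells were corrected by subtracting the blank-well OD.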

[4] = tested on: human umbilical vein endothelial cell HUVEC; assay: Lumen formation ability of HUVEC (Matrigel method); format: cell-based; conditions: Final concentration 1 x 1.0*10^(−5) mol/L
Outline: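 HUVEC at passage 3–5, cultured in M199 at 37° C under 5% CO2, were plated on Matrigel with compound. Spontaneous lumen formation was scored as an inhibition rate.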

[5] = tested on: human lung cancer A549 transplantation tumor; format: in vivo; conditions: BALB/cA nude mice; 60 mg/kg, 6 times every week for 3 weeks; Sorafenib oral 60 mg/kg
Outline: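 Female BALB/cA nude mice, 35-40 days old, bearing A549 human lung cancer transplants; 6 per treatment group, 12 saline controls. Compound given at 60 mg/kg, 6 times weekly for 3 weeks, then observed one week.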

[6] = tested on: human liver cancer cell bel-7402 transplantation tumor; format: in vivo; conditions: BALB/cA nude mice; 60 mg/kg, 6 times every week for 3 weeks; Sorafenib oral 60 mg/kg
Outline: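 Female BALB/cA nude mice (35–40 days, 18–22 g) bearing Bel-7402 xenografts; 6 mice per treated group, 12 in saline controls. Compound dosed at 60 mg/kg, 6 times weekly for 3 weeks, followed by one week of observation; tumor inhibition rate scored against controls.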

[7] = tested on: renal carcinoma cell line GCR-1 transplanted tumor; format: in vivo, BALB/cA nude mice; conditions: BALB/cA nude mice; 60 mg/kg, 6 times every week for 3 weeks; Sorafenib oral 60 mg/kg
Outline: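 Female BALB/cA nude mice (18–22 g) bearing GCR-1 renal carcinoma xenografts, 6 per treated group, 12 saline controls. Drug given at 60 mg/kg, 6 times weekly for 3 weeks, then one week of observation; tumor inhibition rate reported.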

mice S180 sarcoma = assay: Experimental therapeutic action on S180 sarcoma mice; conditions: mice S180 sarcoma, 60 mg/kg orally for 9 days
Protocol: Experimental therapeutic action of the compound in the present invention on S180 sarcoma mice
18-25 g female ICR mice and well grown 7-11 day old mice sarcoma S180 tumor seeds were selected, and the seeds were inoculated into the subcutaneous at the right axillary. After inoculated 24 hours, these mice were randomly divided into cages and orally administrated 60 mg/kg for 9 days. On 10 day, the animals were killed and weighed, and the tumor weights were weighed to calculate average tumor weight in each group, followed by calculating the tumor inhibition rate according to the following formula and T test.

[8] = tested on: Human colon cancer HT-29 transplantable tumor; assay: Human colon cancer HT-29 transplantable tumor in nude mice; conditions: HT-29 in nude mice, 60 mg/kg ig 9 times
Protocol: Experimental therapeutic action of the compound in the present invention on Human colon cancer HT-29 transplantable tumor in nude mice.
Take eugenic tumor tissues and cut into about 1.5 mm^3, and then incoculate subcutaneously at the right armpit of nude mice under the sterile conditions. The diameter of the transplantable tumor in nude mice was determined with a vernier caliper, and the animals were divided into groups after the tumors were grown to 100-300 mm^3. Using the method of measuring the tumor diameter, dynamically observe the antitumor effects of tested materials. The diameter of the tumor was determined three times every week and the mouse weight was weighed at the same time. […] The solvent was intragastrically administrated as the control for continuous 9 times. Equal amount of control was administrated in the negative control group.
Tumor volume (TV) is calculated as: TV=½×a×b^2, wherein a and b respectively represent length and width.
Relative tumor volume (RTV) is calculated as: RTV=TVt/TV0, wherein TV0 is the tumor volume when administrated according to different cages and TVt is the tumor volume measured each time.
Relative tumor reproduction rate T/C (%) is calculated as follows:
TRTV: RTV in the treatment group; CRTV: RTV in the negative control group.
The test results used relative tumor reproduction rate T/C (%) as evaluating indicator of anti-tumor activity.

Compound | Inhibition rate % on raf kinase (Raf-1(truncated)) [%] | Inhibition rate, growth of human lung cancer cell A549 [1] [%] | Inhibition rate, 95D cell strain migration [2] [%] | Inhibition rate, adhesion ability of human lung cancer cell A549 (lung cancer cell A549) [%] | Inhibition rate, growth of HUVEC cell [3] [%] | Inhibition rate, lumen formation ability of HUVEC [4] [%] | Relative tumor reproduction rate T/C (%) on human lung cancer A549 transplantation tumor in nude mice [5] [%] | Relative tumor reproduction rate T/C (%) on human liver cancer cell bel-7402 transplantation tumor model in nude mice [6] [%] | Relative tumor reproduction rate T/C (%) on human renal carcinoma GCR-1 cell transplanted tumor model in nude mice [7] [%] | Tumor growth inhibition rate (%) (mice S180 sarcoma) | Relative tumor reproduction rate T/C (%) [8] [%]
Nc1ccc2c(Oc3ccc(NC(=O)Nc4ccc(Br)c(C(F)(F)F)c4)cc3)cncc2c1 [Compound 27, N-(4-bromo-3-(trifluoromethyl)phenyl)-N′-(4-(4-(7-amino-isoquinolyl)oxy)phenyl)urea] | 8.8 | 64.71 | 59.77 | 94.77 | 24.73 | 89.75 | 36.3 | 29.2 | 26.2 | 55.1 | 80.3
Cc1cc(Oc2ccc(NC(=O)Nc3ccc(Cl)c(C(F)(F)F)c3)cc2)c[nH]1 [Compound 28, N-(4-chloro-3-(trifluoromethyl)phenyl)-N′-(4-(4-(2-methyl-pyrryl)oxy)phenyl)urea] | 33.5 | 88.52 | 70.53 | 90.53 | 20.55 | 89.52 | 13.6 | 17.5 | 11.4 | 11.5 | 39.1
Cc1cc(Oc2ccc(NC(=O)Nc3ccc(Br)c(C(F)(F)F)c3)cc2)c[nH]1 [Compound 30, N-(4-bromo-3-(trifluoromethyl)phenyl)-N′-(4-(4-(2-methyl-pyrryl)oxy)phenyl)urea] | 16.8 | 85.47 | 69.62 | 92.44 | 25.46 | 90.66 | 13.1 | 16.1 | 10.2 | 55.2 | 79.5
CCc1cc(NC(=O)Nc2ccc(Oc3ccnc4cc(F)c(OC)cc34)cc2)ccc1Cl [Compound 31, N-(4-chloro-3-ethylphenyl)-N′-(4-(4-(6-methoxyl-7-fluoro-quinolinyl)oxy)phenyl)urea] | 89.4 | 46.78 | 76.18 | 66.77 | 26.70 | 66.77 | 38.7 | 33.4 | 31.4 | 50.3 | 50.3
CCc1ccc(NC(=O)Nc2ccc(Oc3ccnc4cc(F)c(OC)cc34)cc2)cc1C(F)(F)F [Compound 32, N-(4-ethyl-3-(trifluoromethyl)phenyl)-N′-(4-(4-(6-methoxyl-7-fluoro-quinolinyl)oxy)phenyl)urea] | 90.5 | 45.76 | 66.92 | 64.73 | 24.77 | 54.74 | 35.3 | 31.4 | 32.5 | 49.8 | 46.2
CCc1cc(NC(=O)Nc2ccc(Oc3ccnc4cc(F)c(C)cc34)cc2)ccc1Cl [Compound 33, N-(4-chloro-3-ethylphenyl)-N′-(4-(4-(6-methyl-7-fluoro-quinolinyl)oxy)phenyl)urea] | 92.3 | 57.53 | 77.52 | 77.59 | 17.50 | 67.51 | 37.5 | 32.7 | 33.4 | 55.3 | 39.9
CCc1ccc(NC(=O)Nc2ccc(Oc3ccnc4cc(F)c(C)cc34)cc2)cc1C(F)(F)F [Compound 34, N-(4-ethyl-3-(trifluoromethyl)phenyl)-N′-(4-(4-(6-methyl-7-fluoro-quinolinyl)oxy)phenyl)urea] | 96.2 | 59.52 | 63.65 | 76.54 | 19.52 | 66.52 | 22.3 | 31.5 | 36.1 | 52.6 | 45.9
CCNC(=O)c1cc(Oc2ccc(NC(=O)Nc3ccc(Cl)c(OC)c3)c(C)c2)c2ccc([N+](=O)[O-])cc2n1 [Compound 35, N-(4-chloro-3-methoxyphenyl)-N′-(2-methyl-4-(2-(N-ethylcarbamyl)-4-(7-nitryl-quinolinyl)oxy)phenyl)urea] | 45.3 | 55.74 | 68.47 | 75.72 | 5.74 | 65.70 | 23.6 | 34.5 | 32.3 | 55.8 | 51.2
